Test [1] has as its system AgMaT1 expression. The following applies: saline stress for 4 weeks, daily watering with 300 mM of NaCl; RT-PCR.
Experimental: The total RNA of celery phloem was isolated according to the method of Kay et al. (1987). The first strand of cDNA was reverse transcribed from the total RNA with the oligo dT primer by using the reverse transcriptase SuperScript™ II (Stratagene). […] The PCR conditions were as follows: 2 minutes at 95° C. then 30 cycles comprising denaturation for 30 seconds at 95° C., fixation for one minute at 47° C. and extension for 45 seconds at 72° C. The PCR products were analyzed by agarose gel electrophoresis and the intensity of the signal obtained was quantified using Photoshop 5.0 software (Adobe systems Inc.). The extension factor elF4A(10) (Mandel et al., 1995) was used as control gene, the expression of which is invariable.
The expression of AgMaT1 was monitored in plants having been subjected to saline stress for 4 weeks (daily watering with 300 mM of NaCl, Noiraud et al., 2000). The phloem of these plants as well as of the corresponding control plants (watered with water not containing NaCl) was removed in order to extract the RNA which was used to carry out RT-PCR reactions.
Test [2] deals with AgMaT1. Nature of the test: Transport of radiolabelled mannitol in yeast cells expressing AgMaT1, with competitors. Type of test: cell-based, Apium graveolens L. As to conditions: MaDH4 S. cerevisiae expressing AgMaT1; 500 μM [3H]-mannitol, pH 4.5; competitor added 30 seconds before. Here is the method: The cells were cultured until the start of the logarithmic phase (corresponding to an absorbance of […]), washed in distilled water and resuspended at 1% (weight/volume) in SC medium buffered to pH 4.5 with 25 mM MES. A 100 μl aliquot fraction of the cell suspension was incubated for 60, 120, 180 and 300 seconds in 100 μl of a solution containing of 500 μM [^3H]-mannitol. The reaction was stopped by adding 8 ml of water at 4° C. and by filtration through glass fibre filters (Sartorius). The radioactivity incorporated in the yeast cells was determined by counting using liquid scintillation (Packard). For the experiments with inhibitors or competitors, the product was added 30 seconds before the radioactive mannitol.
For a subsequent characterization of the function of the AgMaT1 protein, it was necessary to express the carrier in a functional manner in a heterologous system such as yeast cells. The cDNA of AgMaT1 was sub-cloned in the PstI/XhoI sites of the YEP 112A1XE shuttle vector which has a promoter/terminator box of the gene of alcohol dehydrogenase ADH1 of S. cerevisiae (Riesmeier et al., 1992). The competent MaDH4 cells were transformed with this construction and YEP 112A1XE was used as control.
All of the constructions were firstly tested for their ability to grow on mannitol as the only carbon source. […] The cells expressing AgMaT1 could grow very well on this polyol. In order to directly test the ability of the transformed cells to transport mannitol, the yeast cells were incubated in a medium containing [^3H]-mannitol for a few seconds to several minutes, the cells were washed and the radioactivity absorbed was measured by […] scintillation counting. […] However, the MaDH4 yeast strains, expressing AgMaT1, transport the [^3H]-mannitol at high speeds when they grow on a medium containing mannitol. The same result is obtained with the cells of transformed yeast growing on glycerol (data not indicated).

On to `[Cl-].[Na+]` [NaCl], for which the “expression of AgMaT1 in the phloem (control plants taken as base 100)” value in test [1] came to 500%.

In the case of `OC[C@@H](O)[C@H](O)[C@H](O)[C@@H](O)CO` [dulcitol], in test [2], the “inhibition of the absorption of mannitol” value is “inhibiting by half”.

As to `O[C@H]1[C@H](O)[C@@H](O)[C@H](O)[C@@H](O)[C@H]1O` [myo-inositol], the “inhibition of the absorption of mannitol” value in test [2] was “inhibiting by half”.

Consider `OC[C@@H](O)[C@@H](O)[C@H](O)[C@@H](O)CO` [sorbitol], for which, in test [2], the “inhibition of the absorption of mannitol” value is given as “inhibiting by half”.

In the case of `OC[C@@H](O)[C@H](O)[C@@H](O)CO` [xylitol], in test [2], the “inhibition of the absorption of mannitol” value was “inhibiting by half”.

(Values after patent US7098313B2, “DNA sequences coding for a polyol carrier and their use, in particular for the preparation of transgenic plants” (Centre National de la Recherche Scientifique, priority 2000, dated 2006).)
